Data from patent US11718628B2, “SREBP inhibitors comprising a 6-membered central ring” (Capulus Therapeutics, LLC, priority 2018, dated 2023).

Tests used:
HepG2 cells = experiment: Gene expression of HepG2 cells (quantitative PCR); assay type: cell-based; parameters: key to LSS gene expression / MVK gene expression / SREBP1 gene expression / SREBP2 gene expression / SCAP gene expression / SCD gene expression / MVD gene expression / ACACA gene expression / ACACB gene expression / ACLY gene expression / ACSS1 gene expression / ACSS2 gene expression / ELOVL6 gene expression / FASN gene expression / HMGCR gene expression: relative expression vs mock/vehicle (ΔΔCT, β-actin normalized); details: 500 nM, 48 hrs
Experimental: Gene Expression: The effect of selected compounds described herein on the gene expression of HepG2 cells was evaluated. HepG2 cells (P2) were seeded in 24 well plate (80,000 cells/well) for RNA extraction and in a 96 well plate (10,000 cells/well) for Cell Titer Glow (CTG). The media used was DMEM and contained 10% FBS. Each compound was evaluated at […] for 48 hours. Two biological replicates per experimental group were evaluated for RNA. For gene analysis, RNA was harvested with RNEasy kit and 20-100 ng used to synthesize cDNA with random primers. Quantitative PCR was performed on 1 pg to 100 ng cDNA for the following genes: ACACA, ACLY, FASN, LSS, PNPLA3. Gene expression levels were normalized with housekeeping gene, β-Actin, and relative expression levels determined using ΔΔCT method comparing treated to mock or vehicle treated cells as a baseline. “Total” gene expression refers to the average of the values of the 5 genes listed above.
The effect of Compound Z-725 on expression of the genes ACACA, ACACB, ACLY, ACSS1, ACSS2, ELOVL6, FASN, HMGCR, LSS, MVK, PNPLA3, SREBP1, SREBP2, SCAP, SCD, and MVD was evaluated, following the procedure described in Example 52.

[1] = Log D by octanol/aqueous buffer partitioning; assay type: physicochemical; details: pH 7.4, 1-octanol/buffer
Experimental: The Log D of selected compounds was evaluated by octanol/aqueous buffer partitioning. 500 μL of organic phase (1-octanol) was added to each well of a 2 mL deep well plate, followed by 500 μL of buffer and 15 μL of test compound in DMSO (0.15 mM). The plate was vortexed for 10 seconds and incubated at room temperature for 1 hr on a plate shaker at 200 rpm. After incubation, the samples were allowed to equilibrate for 20 min and then centrifuged at 4000 rpm for 30 min for complete phase separation. The distribution of test compound in buffer and octanol phase was analyzed by HPLC-UV. Log D=Log (Area of Octanol/Area of Buffer).

[2] = tested on: liver gene expression (ACACA, ACLY, FASN, LSS, PNPLA3); experiment: Liver gene expression in mice after oral administration; assay type: in vivo; details: vs vehicle
Method in brief: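 Mice were dosed by oral gavage with compounds in 0.5% methylcellulose, with 5% N-methyl pyrrolidone added when needed, and unperfused livers were collected at 6 or 24 h. Liver RNA was reverse-transcribed with random primers and ACACA, ACLY, FASN, LSS and PNPLA3 were measured by qPCR. Fold change versus vehicle was derived by ΔΔCT, and the mean of the five genes is reported as Total Fold Change.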

Compound CC(C)(C)c1cc(-c2cncc(-c3ccc(C(=O)N4CCC(O)CC4)cc3Cl)c2)ccn1 [Compound Z-725] has an ACACA gene expression (HepG2 cells) of 0.4399, an ACACB gene expression (HepG2 cells) of 0.5472 and an ACLY gene expression (HepG2 cells) of 0.3505. For the same compound, the ACSS1 gene expression (HepG2 cells) was 0.2838, the ACSS2 gene expression (HepG2 cells) was 0.4792 and the ELOVL6 gene expression (HepG2 cells) was 0.4432. The FASN gene expression (HepG2 cells) was 0.2957, the HMGCR gene expression (HepG2 cells) was 0.09282 and the LSS gene expression (HepG2 cells) was 0.2412. It also gave an MVD gene expression (HepG2 cells) of 0.1984, an MVK gene expression (HepG2 cells) of 0.05926 and a PNPLA3 gene expression (HepG2 cells) of 0.09989. It also gave an SCAP gene expression (HepG2 cells) of 1.312, an SCD gene expression (HepG2 cells) of 0.2009 and an SREBP1 gene expression (HepG2 cells) of 0.5489. For the same compound, the SREBP2 gene expression (HepG2 cells) was 0.786, the LogD [1] was 3.56 and the “Total Gene FC Time (6 h)” value ([2]; 10 mpk) was “+++ (0-0.509 = +++)”. The “Total Gene FC Time (24 h)” value ([2]; 10 mpk) was “+ (>0.751 = +)”, the “Total Gene FC Time (6 h)” value ([2]; 30 mpk) was “+++ (0-0.509 = +++)” and the “Total Gene FC Time (24 h)” value ([2]; 30 mpk) was “+ (>0.751 = +)”.
